Patent US20150329558A1, “FUSED HETEROCYCLIC COMPOUNDS AS ION CHANNEL MODULATORS” (Gilead Sciences, Inc., priority 2011, published 2015)
Where two headings read alike, the source gives them in different places.

What was measured:
[1] = Microsomal stability assay, human; assay type: in vitro ADME; details: metabolic stability, human liver microsomes 0.5 mg/mL, substrate 3 uM
Procedure, shortened: (§1)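 Liver microsomes at 0.5 mg/mL protein in 100 mM KPO4 buffer, incubated with 3 uM compound and NADPH-regenerating system, run in duplicate. Samples taken at 2, 12, 25, 45 and 65 min and quenched in MeOH/ACN/water before analysis.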

[2] = Microsomal stability assay, rat; assay type: in vitro ADME; details: metabolic stability, rat liver microsomes 0.5 mg/mL, substrate 3 uM
Procedure, shortened: as §1

[3] = target: wild-type human cardiac sodium channel, hNav1.5 (peak INa) (Homo sapiens, UniProt Q14524); assay: Peak INa screening assay (tonic and use-dependent block); assay type: cell-based
Chain of wild-type human cardiac sodium channel, hNav1.5 (peak INa) (Q14524 whole entry): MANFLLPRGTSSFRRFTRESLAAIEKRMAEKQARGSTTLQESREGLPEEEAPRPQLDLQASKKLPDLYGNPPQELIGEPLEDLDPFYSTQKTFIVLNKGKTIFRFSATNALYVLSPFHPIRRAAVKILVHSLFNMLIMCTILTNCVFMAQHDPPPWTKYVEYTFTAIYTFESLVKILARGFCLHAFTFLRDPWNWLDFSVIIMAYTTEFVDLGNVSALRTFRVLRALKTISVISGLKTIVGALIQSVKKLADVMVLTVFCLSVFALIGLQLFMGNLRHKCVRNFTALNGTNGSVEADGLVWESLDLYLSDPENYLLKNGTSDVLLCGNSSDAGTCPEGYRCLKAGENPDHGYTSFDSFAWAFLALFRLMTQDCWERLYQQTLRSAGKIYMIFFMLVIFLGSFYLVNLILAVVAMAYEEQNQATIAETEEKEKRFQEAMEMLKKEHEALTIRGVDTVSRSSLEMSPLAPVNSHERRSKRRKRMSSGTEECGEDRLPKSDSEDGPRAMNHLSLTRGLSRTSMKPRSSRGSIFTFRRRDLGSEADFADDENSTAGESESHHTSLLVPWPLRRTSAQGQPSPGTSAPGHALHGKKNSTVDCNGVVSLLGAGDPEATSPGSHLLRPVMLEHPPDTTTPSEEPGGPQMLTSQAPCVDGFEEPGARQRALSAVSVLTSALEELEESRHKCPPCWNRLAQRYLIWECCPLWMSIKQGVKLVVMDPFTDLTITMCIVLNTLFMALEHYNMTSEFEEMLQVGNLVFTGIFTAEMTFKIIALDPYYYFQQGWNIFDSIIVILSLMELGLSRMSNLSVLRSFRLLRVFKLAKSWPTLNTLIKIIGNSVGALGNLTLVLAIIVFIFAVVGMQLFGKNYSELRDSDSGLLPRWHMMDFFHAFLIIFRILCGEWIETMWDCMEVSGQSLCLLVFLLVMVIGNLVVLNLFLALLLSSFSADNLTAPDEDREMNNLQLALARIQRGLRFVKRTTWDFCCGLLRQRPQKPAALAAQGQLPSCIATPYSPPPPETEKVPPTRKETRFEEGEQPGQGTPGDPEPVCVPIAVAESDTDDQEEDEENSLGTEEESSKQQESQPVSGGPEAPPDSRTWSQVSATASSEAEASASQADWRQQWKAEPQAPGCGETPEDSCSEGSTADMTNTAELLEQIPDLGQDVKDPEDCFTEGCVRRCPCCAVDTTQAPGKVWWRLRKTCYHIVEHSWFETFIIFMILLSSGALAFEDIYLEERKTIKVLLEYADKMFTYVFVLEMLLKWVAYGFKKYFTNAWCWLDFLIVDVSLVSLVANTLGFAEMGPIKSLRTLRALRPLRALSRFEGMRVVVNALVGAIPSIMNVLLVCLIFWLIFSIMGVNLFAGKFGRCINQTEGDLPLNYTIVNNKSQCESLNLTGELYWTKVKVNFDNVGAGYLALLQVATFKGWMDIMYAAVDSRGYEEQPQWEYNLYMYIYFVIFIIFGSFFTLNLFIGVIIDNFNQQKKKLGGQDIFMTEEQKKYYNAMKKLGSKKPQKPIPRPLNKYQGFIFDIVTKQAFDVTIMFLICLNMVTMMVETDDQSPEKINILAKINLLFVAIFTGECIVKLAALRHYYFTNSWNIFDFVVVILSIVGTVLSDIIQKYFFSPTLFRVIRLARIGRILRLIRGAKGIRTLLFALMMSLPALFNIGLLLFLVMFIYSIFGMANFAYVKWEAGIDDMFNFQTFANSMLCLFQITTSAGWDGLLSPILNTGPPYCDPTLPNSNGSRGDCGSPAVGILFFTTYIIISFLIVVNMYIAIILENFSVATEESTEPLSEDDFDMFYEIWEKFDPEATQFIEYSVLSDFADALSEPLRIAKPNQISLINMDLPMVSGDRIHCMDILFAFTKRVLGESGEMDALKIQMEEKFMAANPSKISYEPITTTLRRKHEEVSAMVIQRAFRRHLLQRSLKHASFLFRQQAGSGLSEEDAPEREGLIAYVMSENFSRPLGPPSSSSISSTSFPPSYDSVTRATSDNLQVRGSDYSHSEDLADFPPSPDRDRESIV
Procedure, shortened: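 Whole-cell automated patch clamp, HEK293 stably expressing hNav1.5 alpha without beta subunits, 23-25° C, holding −100 mV; bath Na⁺ reduced to 20 mM, CsF-based intracellular pH 7.4. Test compound 1 μM; tonic block at 0.1 Hz, use-dependent block at 3 Hz, % peak block after rundown correction.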

[4] = target: T1, hNav1.1 (Homo sapiens, UniProt P35498); assay: Nav1.1 use-dependent block, whole-cell voltage clamp; assay type: cell-based; details: use-dependent block 10 Hz, read-out: NAv1.1*-CHAN TEST-UDB-10 HZ-
T1 construct: expressed in transfected cells; host or cells: HEK293, transient transfection (α1:β1:β2 = 10:1:1)

[5] = % inhibition at 1 μM, tonic block, read-out: NAv1.5*-PEAK-TB-
[6] = % inhibition at 1 μM, use-dependent block 3 Hz, read-out: NAv1.5*-PEAK-UDB-3 HZ-
[7] = tonic block of peak INa, 0.1 Hz, 1 μM, read-out: Peak TB 1 μM
[8] = use-dependent block of peak INa, 3 Hz, 1 μM, read-out: Peak UDB 1 μM

MS Human THalf [1] [min]	MS Rat THalf [2] [min]	inhibition at 1 µM [4] [%]	SMILES	inhibition at 1 µM [3, 5] [%]	inhibition at 1 µM [3, 6] [%]	inhibition at 1 µM [3, 7] [%]	inhibition at 1 µM [3, 8] [%]
125	211	4.4	O=C1c2cc(-c3ccc(C(F)(F)F)cc3)ccc2OCN1Cc1ccccn1 [VIII-1, 3-(pyridin-2-ylmethyl)-6-(4-(trifluoromethyl)phenyl)-2H-benzo[e][1,3]oxazin-4(3H)-one]	35	26	35	26
285	227	3.1	O=C1c2cc(-c3ccc(OC(F)(F)F)cc3)ccc2OCN1Cc1ccccn1 [VIII-3, 3-(pyridin-2-ylmethyl)-6-(4-(trifluoromethoxy)phenyl)-2H-benzo[e][1,3]oxazin-4(3H)-one]	21	12	21	12
